Measurements published in ChEMBL document CHEMBL1158944, “Chemistry of Sponges, XII. A New Dihydric Phenol from the Sponge Fasciospongia sp” (J Nat Prod, 1991).
Calls of active or inactive are those of the source. The rule behind the calls is not given here.

How the values were obtained:
[1] = system: Staphylococcus aureus; assay: Antimicrobial activity against Staphylococcus aureus at 100 ug/ml; format: functional, organism-based
[2] = system: Bacillus subtilis; assay: Antimicrobial activity against Bacillus subtilis at 100 ug/ml; format: functional, organism-based

COc1cc(C/C=C(/C)CC/C=C(\C)CC/C=C(\C)CCC=C(C)C)cc(O)c1O
Activity [1]: Active | Activity [2]: Active
